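Results reflect a 48-hour exposure of cells in 96-well plates to compound at five concentrations. Here, GI50 denotes the concentration required for 50% inhibition of growth. At the TGI there is no net growth.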
How the values were obtained:
Assay in all cases: inhibition of tumour cell growth, NCI panel, 48 h
[1] = tested on: NCI/ADR-RES ovarian
[2] = tested on: T-47D breast
[3] = tested on: UACC-62 melanoma
[4] = tested on: HCT-116 colon
[5] = tested on: OVCAR-5 ovarian
[6] = tested on: OVCAR-8 ovarian
[7] = tested on: RPMI-8226 leukemia
[8] = tested on: OVCAR-3 ovarian
[9] = tested on: TK-10 renal
[10] = tested on: HT29 colon
[11] = tested on: 786-0 renal
[12] = tested on: UO-31 renal
[13] = tested on: SF-539 CNS
[14] = tested on: K-562 leukemia
[15] = tested on: MOLT-4 leukemia
[16] = tested on: NCI-H23 lung
[17] = tested on: HOP-62 NSCLC
[18] = tested on: SR leukemia
[19] = tested on: PC-3 prostate
[20] = tested on: SN12C renal
[21] = tested on: SK-MEL-28 melanoma
[22] = tested on: EKVX NSCLC
[23] = tested on: A549 NSCLC
[24] = tested on: HOP-92 NSCLC
[25] = tested on: SNB-75 CNS
[26] = tested on: SW-620 colon
[27] = tested on: NCI-H226 lung
[28] = tested on: SK-MEL-2 melanoma
[29] = tested on: HS 578T breast
[30] = tested on: NCI-H460 lung
[31] = tested on: SF-295 CNS
[32] = tested on: DU-145 prostate
[33] = tested on: MDA-MB-231 breast
[34] = tested on: SK-OV-3 ovarian
[35] = tested on: IGROV1 ovarian
[36] = tested on: BT-549 breast
[37] = tested on: KM12 colon
[38] = tested on: A498 renal
[39] = tested on: CCRF-CEM leukemia
[40] = tested on: OVCAR-4 ovarian
[41] = tested on: CAKI-1 renal
[42] = tested on: ACHN renal
[43] = tested on: SNB-19 CNS
[44] = tested on: SF-268 CNS
[45] = tested on: HCC-2998 colon
[46] = tested on: LOX IMVI melanoma
[47] = tested on: U251 CNS

Compound `Cc1cc2[nH]c(=O)c3c4ncccc4cn3c2cc1C` has a GI50 [1] of 2.93 µM, a TGI [1] greater than 100 µM and a GI50 [2] of 2.37 µM. For the same compound, the TGI [2] was greater than 100 µM, the GI50 [3] was 2.06 µM and the TGI [3] was 4.33 µM. It also gave a GI50 [4] of 1.92 µM, a TGI [4] of 4.53 µM and a GI50 [5] greater than 100 µM. The TGI [5] was greater than 100 µM, the GI50 [6] was 2.89 µM and the TGI [6] was greater than 100 µM. The GI50 [7] was 2.66 µM, the TGI [7] was 7.61 µM and the GI50 [8] was 2.02 µM. It also gave a TGI [8] of 4.33 µM, a GI50 [9] of 4.36 µM and a TGI [9] of 61.8 µM. It also gave a GI50 [10] of 2.98 µM, a TGI [10] greater than 100 µM and a GI50 [11] of 3.06 µM. The TGI [11] was 8.42 µM, the GI50 [12] was 1.68 µM and the TGI [12] was 4.58 µM. The GI50 [13] was 1.93 µM, the TGI [13] was 3.98 µM and the GI50 [14] was 2.54 µM. The TGI [14] was greater than 100 µM, the GI50 [15] was 3.54 µM and the TGI [15] was greater than 100 µM. It also gave a GI50 [16] of 8.86 µM, a TGI [16] greater than 100 µM and a GI50 [17] of 3.81 µM. The TGI [17] was 39.4 µM, the GI50 [18] was 2.17 µM and the TGI [18] was 6.16 µM. It also gave a GI50 [19] of 5.83 µM, a TGI [19] greater than 100 µM and a GI50 [20] of 3.45 µM. For the same compound, the TGI [20] was greater than 100 µM, the GI50 [21] was 4.7 µM and the TGI [21] was greater than 100 µM. The GI50 [22] was greater than 100 µM, the TGI [22] was greater than 100 µM and the GI50 [23] was 4.82 µM. It also gave a TGI [23] greater than 100 µM, a GI50 [24] of 2.94 µM and a TGI [24] of 16.3 µM. For the same compound, the GI50 [25] was 3.3 µM, the TGI [25] was 15.7 µM and the GI50 [26] was 2.89 µM. For the same compound, the TGI [26] was greater than 100 µM, the GI50 [27] was 6.04 µM and the TGI [27] was greater than 100 µM. For the same compound, the GI50 [28] was 5.69 µM, the TGI [28] was 40.3 µM and the GI50 [29] was 5.93 µM. For the same compound, the TGI [29] was 52.2 µM, the GI50 [30] was 2.17 µM and the TGI [30] was 6.2 µM. For the same compound, the GI50 [31] was 1.85 µM, the TGI [31] was 3.84 µM and the GI50 [32] was 4.13 µM. The TGI [32] was greater than 100 µM, the GI50 [33] was 4.64 µM and the TGI [33] was greater than 100 µM. The GI50 [34] was 6.62 µM, the TGI [34] was 73.7 µM and the GI50 [35] was 2.75 µM. For the same compound, the TGI [35] was greater than 100 µM, the GI50 [36] was 14.5 µM and the TGI [36] was 41.4 µM. The GI50 [37] was 3.17 µM, the TGI [37] was greater than 100 µM and the GI50 [38] was 9.38 µM. The TGI [38] was 84.5 µM, the GI50 [39] was 2.95 µM and the TGI [39] was greater than 100 µM. It also gave a GI50 [40] of 4.17 µM, a TGI [40] greater than 100 µM and a GI50 [41] of 3.21 µM. For the same compound, the TGI [41] was greater than 100 µM, the GI50 [42] was 2.44 µM and the TGI [42] was greater than 100 µM. For the same compound, the GI50 [43] was 5.48 µM, the TGI [43] was greater than 100 µM and the GI50 [44] was 3.44 µM. For the same compound, the TGI [44] was greater than 100 µM, the GI50 [45] was 2.59 µM and the TGI [45] was 7.97 µM. The GI50 [46] was 1.72 µM, the TGI [46] was 3.34 µM and the GI50 [47] was 2.67 µM. The TGI [47] was 9.18 µM.
